The % Inhibition is the share of the control response that was lost under treatment. A high value points to a strong effect. As usually defined, the IC50 is the midpoint of a concentration-inhibition curve. A low value points to greater potency in that assay.

Strand notation (5' to 3'): a small letter for the sugar, then the base; units joined by * are phosphorothioate-linked, units joined directly phosphodiester-linked; [ ] holds rarer units or linkages, { } end groups; capitals alone tell only the bases. e = 2'-O-(2-methoxyethyl) (MOE); [5mC] = 5-methylcytosine; d = 2'-deoxy (DNA)

For data set [1], the system named is human SMAD7 mRNA. Description: Antisense inhibition of human SMAD7 mRNA expression in Hep3B cells by 5-10-5 MOE gapmers, single concentration, electroporation, RT-PCR (Example 1, Study 1 and 2). It counts as cell-based. In outline: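 Hep3B cells (20,000/well) electroporated with 5-10-5 MOE gapmer at 5,000 nM or 15,000 nM for approximately 24 h. SMAD7 mRNA quantified by real-time PCR with primer probe set RTS5062 and normalized to RIBOGREEN total RNA. Values are percent inhibition relative to untreated controls.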

Data set [2] has as its system human SMAD7 mRNA. Put plainly: Dose-dependent inhibition of human SMAD7 mRNA expression in Hep3B cells (Example 3, Study 1 and 2). It counts as cell-based. To be noted: electroporation; for % inhibition of SMAD7 mRNA expression: approximately 16 hours; for IC50: Study 1 (312.5-20000 nM). In outline: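 Hep3B cells, 20,000 per well, electroporated with antisense oligonucleotide at 0.31, 1.25, 5.00 or 20.00 μM (first series) or 0.74, 2.22, 6.67 or 20.00 μM (second series). After ~16 h, SMAD7 mRNA measured by RT-qPCR (RTS5062), normalised to RIBOGREEN total RNA. Percent inhibition vs untreated cells; IC50 derived.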

The mark [3] stands for this setting: Study 2, electroporation with 15,000 nM antisense oligonucleotide, 5-10-5 MOE gapmers targeting SEQ ID NO: 1 and 2.
[4] abbreviates: 312.5 nM, Study 1, relative to untreated control cells.
The mark [5] stands for this setting: electroporation, 15,000 nM, approximately 24 hours, relative to untreated control cells, gapmers targeting SEQ ID NO: 1 and 2.

Turning to “771822 (antisense e[5mC]*eA*e[5mC]*e[5mC]*eA*dA*dA*dA*d[5mC]*dA*dA*dG*dT*dG*dT*e[5mC]*eT*eA*e[5mC]*e[5mC]) [compound 771822]”, in data set [1] (setting [3]), the “% Inhibition” value was 44%. Further, the “% inhibition of SMAD7 mRNA expression” value in data set [2] (setting [4]) is 0%; in data set [2] (1250.0 nM, Study 1), 0%; in data set [2] (5000.0 nM, Study 1) it was 30%; in data set [2] (20000.0 nM, Study 1) it was 45%. For the same substance, the half-maximal inhibitory concentration (IC50) in data set [2] is > 20 µM.

Regarding “771634 (antisense eT*eG*eA*e[5mC]*eG*dG*dA*d[5mC]*d[5mC]*dA*dA*dA*dT*d[5mC]*d[5mC]*eT*eT*e[5mC]*eT*eT) [compound 771634]”, the “% inhibition of SMAD7 mRNA expression” value in data set [1] (electroporation with 15,000 nM antisense oligonucleotide (Study 2), 5-10-5 MOE gapmers targeting SEQ ID NO: 1 and 2) is listed as 53%; in data set [2] (setting [4]), 0%; in data set [2] (1250.0 nM, Study 1), 3%; in data set [2] (5000.0 nM, Study 1) it was 40%; in data set [2] (20000.0 nM, Study 1) it was 36%. In addition, the IC50 in data set [2] was > 20 µM.

For “771850 (antisense eT*e[5mC]*e[5mC]*e[5mC]*eA*d[5mC]*dT*dT*d[5mC]*dT*d[5mC]*d[5mC]*dT*d[5mC]*dT*eG*eG*e[5mC]*eT*eG) [compound 771850]”, the “% inhibition of SMAD7 mRNA expression” value in data set [1] (electroporation, 15,000 nM antisense oligonucleotide (Study 2), 5-10-5 MOE gapmers targeting SEQ ID NO: 1 and 2) worked out at 58%; in data set [2] (setting [4]), 0%; in data set [2] (1250.0 nM, Study 1), 8%; in data set [2] (5000.0 nM, Study 1), 20%; in data set [2] (20000.0 nM, Study 1), 44%. Also, in data set [2], the IC50 was > 20 µM.

With “771831 (antisense e[5mC]*eG*eA*eT*e[5mC]*dA*dT*dT*dT*dT*d[5mC]*dT*dA*d[5mC]*dA*e[5mC]*e[5mC]*eT*eT*eT) [compound 771831]”, in data set [1] (setting [3]), the “% Inhibition” value came to 66%. Moreover, the “% inhibition of SMAD7 mRNA expression” value in data set [2] (setting [4]) turned out to be 0%; in data set [2] (1250.0 nM, Study 1) it was 13%; in data set [2] (5000.0 nM, Study 1) it was 32%; in data set [2] (20000.0 nM, Study 1), 51%. The substance also gave an IC50 in data set [2] of 16 µM.

As to “771821 (antisense eG*eT*eT*e[5mC]*e[5mC]*dT*dT*dA*dT*dA*dG*dA*dT*dT*dA*eT*e[5mC]*e[5mC]*eA*eA) [compound 771821]”, the “% inhibition of SMAD7 mRNA expression” value in data set [1] (setting [5]) is on record as 60%; in data set [2] (setting [4]), 0%; in data set [2] (1250.0 nM, Study 1), 9%; in data set [2] (5000.0 nM, Study 1), 27%; in data set [2] (20000.0 nM, Study 1) it was 46%. Further, in data set [2], the IC50 was > 20 µM.

Take “771663 (antisense eT*eT*e[5mC]*e[5mC]*eA*dA*dT*dG*dA*dG*dA*dA*dT*dG*d[5mC]*eT*eT*e[5mC]*eT*e[5mC]) [compound 771663]”: the “% inhibition of SMAD7 mRNA expression” value worked out at 56% in data set [1] (setting [3]); 10% in data set [2] (setting [4]); 24% in data set [2] (1250.0 nM, Study 1); 43% in data set [2] (5000.0 nM, Study 1); 56% in data set [2] (20000.0 nM, Study 1). For the same substance, the IC50 in data set [2] is 11 µM.

On to “771717 (antisense eT*e[5mC]*e[5mC]*e[5mC]*eA*dT*d[5mC]*dT*dA*dT*d[5mC]*dG*dA*dA*dT*e[5mC]*eA*e[5mC]*e[5mC]*e[5mC]) [compound 771717]”, for which the “% inhibition of SMAD7 mRNA expression” value in data set [1] (setting [5]) turned out to be 57%; in data set [2] (setting [4]), 2%; in data set [2] (1250.0 nM, Study 1), 0%; in data set [2] (5000.0 nM, Study 1) it was 0%; in data set [2] (20000.0 nM, Study 1) it was 30%. For the same substance, the IC50 in data set [2] was > 20 µM.

On to “771797 (antisense eG*e[5mC]*eA*e[5mC]*eA*dG*dA*d[5mC]*dT*dG*d[5mC]*d[5mC]*dA*dA*dA*eT*e[5mC]*eA*e[5mC]*eA) [compound 771797]”, for which the “% inhibition of SMAD7 mRNA expression” value in data set [1] (setting [5]) came out at 62%; in data set [2] (setting [4]), 1%; in data set [2] (1250.0 nM, Study 1), 0%; in data set [2] (5000.0 nM, Study 1), 15%; in data set [2] (20000.0 nM, Study 1) it was 35%. In data set [2], the IC50 is > 20 µM.

These data come from patent US10517889B2, “Modulators of SMAD7 expression” (Ionis Pharmaceuticals, Inc., priority 2017, dated 2019).
